The SangsterLogP compilation

assay: method code SF, from DOI: 10.1016/0360-3016(89)90899-7, PMID: 2703405; details: pH 7.4

SMILES | logD
CC(=O)CC(=O)Nc1n[n+]([O-])c2ccccc2[n+]1[O-] | -1.4
CC(=O)Nc1n[n+]([O-])c2ccccc2[n+]1[O-] | -0.6
[O-][n+]1cn[n+]([O-])c2ccccc21 | -0.8
CC(=O)Nc1n[n+]([O-])c2cc(C)ccc2[n+]1[O-] | -0.4
Nc1n[n+]([O-])c2cc(OCC(O)CO)ccc2[n+]1[O-] (stereo unspecified) | -1.1
COc1n[n+]([O-])c2ccccc2[n+]1[O-] | -0.3

Next, values leading:

logD | SMILES
0 | COc1ccc2c(c1)[n+]([O-])c(N)n[n+]2[O-]
0.41 | Nc1n[n+]([O-])c2ccc(Cl)cc2[n+]1[O-]
0.2 | Cc1ccc2c(c1)[n+]([O-])nc(N)[n+]2[O-]
0.76 | C=CCOc1ccc2c(c1)[n+]([O-])nc(N)[n+]2[O-]
-0.3 | Nc1n[n+]([O-])c2ccccc2[n+]1[O-]
